Data as given in patent US10023565B2, “N,N′ substituted piperidinamine compounds, and preparation method and usage thereof” (Institute of Pharmacology and Toxicology Academy of …, priority 2013, dated 2018).

Biological target: T1, Hsp70 (Homo sapiens, UniProt P0DMV8)
T1 construct: purchased Enzo Life Sciences ADI-ESP-550-D
Experiment: Measurement of affinity between compounds and Hsp70 (SPR, BIACORE T100)
Type: binding
Procedure: Instrument for measuring the affinity between Example compounds and Hsp70 is BIACORE T100 Biomolecular Interaction Analysis (GE, USA), and the positive control drug is VER-155008 that is well-recognized as Hsp70 inhibitor now, and, on the basis of the measured results, according to binding characteristics between the compounds and protein, the binding constant (equilibrium dissociation constant KD) between drugs and protein is calculated by selecting steady state model with the formula: Conc*Rmax/[conc+KD]+offset.
1. Instrument: BIACORE T100 Biomolecular Interaction Analysis (GE, USA)
2. Reagents: PBS Buffer (×10), P20, CM5 chip (GE, USA), Hsp70 (human, ADI-ESP-550-D), manufactured by Enzo Life Sciences.
30 mM mother liquor of the compound was formulated with DMSO, which was diluted to 2 mM application solution with DMSO before use. 5 μl of the application solution was taken and diluted with 95 μl 1.05×PBS to 100 μM, and then diluted in turn with PBS containing 5% DMSO to […]. PBS containing 5% DMSO was used as solvent control.
Hsp70 protein was diluted with 10 mmol/L sodium acetate buffer solution (pH 5.0) to 30 μg/ml, and coupled directly on a hydrophilic carboxylmethyl dextran matrix sensor chip M5 through normalized primary amine coupling reaction, RU=11209, and then the chip was balanced for 1-2 h with PBS Buffer at […].
At a flow rate of […], with PBS containing 5% DMSO as mobile phase, at 25° C., the compound was introduced in the sequence of 0.003, 0.01, 0.03, 0.1, 0.3, 1, 3 and 10 μM, with binding time of 90 seconds, and dissociation time of 120 seconds.
According to binding characteristics between the compounds and protein, the binding constant (equilibrium dissociation constant KD) between drugs and protein was calculated by selecting steady state model with the formula: Conc*Rmax/[conc+KD]+offset.

T1 sequence (P0DMV8 whole entry): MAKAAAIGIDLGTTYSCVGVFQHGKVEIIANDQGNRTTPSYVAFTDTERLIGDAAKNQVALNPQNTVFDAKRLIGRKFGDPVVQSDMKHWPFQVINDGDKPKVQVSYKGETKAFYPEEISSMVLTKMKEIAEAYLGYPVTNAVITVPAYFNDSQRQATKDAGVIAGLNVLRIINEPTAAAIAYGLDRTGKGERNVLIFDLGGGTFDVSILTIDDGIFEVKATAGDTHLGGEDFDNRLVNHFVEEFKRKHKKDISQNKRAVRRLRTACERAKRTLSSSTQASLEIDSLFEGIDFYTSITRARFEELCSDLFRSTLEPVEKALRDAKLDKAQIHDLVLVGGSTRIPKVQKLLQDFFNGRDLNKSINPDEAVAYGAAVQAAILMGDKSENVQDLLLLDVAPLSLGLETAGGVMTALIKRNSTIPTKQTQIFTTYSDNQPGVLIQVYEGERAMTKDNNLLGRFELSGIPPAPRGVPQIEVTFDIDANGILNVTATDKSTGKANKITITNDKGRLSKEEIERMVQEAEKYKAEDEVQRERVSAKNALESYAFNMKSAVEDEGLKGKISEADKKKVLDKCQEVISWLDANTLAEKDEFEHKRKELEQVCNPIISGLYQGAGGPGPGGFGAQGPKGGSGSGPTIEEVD

In the case of `CSc1nccc(N2CCC(N(C)Cc3ccc(C#N)cc3)CC2)n1` [Example 36, N-methyl-N-(4-cyanobenzyl)-N-[1-(2-methylthiopyrimidin-4-yl)piperidin-4-yl]amine], the “KD compared with positive control drug VER-155008” value is reported as “KD values equivalent to that of the positive control drug VER-155008” and the Kd (steady state model, 25° C., read-out: KD (binding constant between the compounds and Hsp70)) is reported as 246 nM.
